These results are taken from patent US20200022370A1, “MICROBIOCIDAL OXADIAZOLE DERIVATIVES” (SYNGENTA PARTICIPATIONS AG, priority 2016, published 2020).

The test system of data set [1] is Uromyces viciae-fabae. Nature of the data set: Uromyces viciae-fabae / field bean / leaf disc preventative (faba-bean rust). Type of data set: in vivo. To be noted: foliar, 288 h, 100 ppm in the applied formulation, field bean leaf discs, inoculated two hours after application, vs untreated, 12 days after application, read-out: disease control. How it is done:
Leaf disks or leaf segments of various plant species are cut from plants grown in a greenhouse. The cut leaf disks or segments are placed in multiwell plates (24-well format) onto water agar. The leaf disks are sprayed with a test solution before (preventative) or after (curative) inoculation. Compounds to be tested are prepared as DMSO solutions (max. 10 mg/ml) which are diluted to the appropriate concentration with 0.025% Tween20 just before spraying. The inoculated leaf disks or segments are incubated under defined conditions (temperature, relative humidity, light, etc.) according to the respective test system. A single evaluation of disease level is carried out 3 to 14 days after inoculation, depending on the pathosystem. Percent disease control relative to the untreated check leaf disks or segments is then calculated.
Example 5: Fungicidal Activity Against Uromyces viciae-fabael Field Bean/Leaf Disc Preventative (Faba-Bean Rust)
Field bean leaf discs are placed on water agar in multiwell plates (96-well format) and 10 μl of the Formulated test compound diluted in acetone and a spreader pipetted onto the leaf disc. Two hours after application leaf discs are inoculated by spraying a spore suspension on the lower leaf surface. The leaf discs are incubated in a climate cabinet at 22° C. with 18 hour day and 70% relative humidity. The activity of a compound is assessed as percent disease control compared to untreated when an appropriate level of disease damage appears in untreated check leaf disks (12 days after application).
The following compounds at 100 ppm in the applied Formulation give at least 80% disease control in this test when compared to untreated control leaf discs under the same conditions, which show extensive disease development.

Data set [2] has as its system Puccinia recondita f. Sp. Tritici. Description: Puccinia recondita f. sp. tritici / wheat / leaf disc preventative (brown rust). The following applies: foliar, 200 ppm in the applied formulation, wheat leaf segments cv. Kanzler, inoculated 1 day after application, vs untreated, 7 to 9 days after application, read-out: disease control. Type of data set: in vivo. The procedure, abridged: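 Preventative leaf-segment test on wheat cv. Kanzler: formulated compound diluted in water was sprayed onto segments on agar, with spore inoculation 1 day later. Incubated at 19° C, 75% rh, 12 h light/12 h dark; percent disease control versus untreated scored 7 to 9 days after application.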

For data set [3], the system named is Glomerella lacenarium (Colletotrichum lacenarium). Nature of the data set: Glomerella lacenarium (Colletotrichum lacenarium) liquid culture / cucumber / preventative (anthracnose). Type of data set: cell-based. The following applies: 20 ppm, liquid culture in PDB, 24° C., inhibition of growth measured photometrically 3 to 4 days after application, vs untreated, read-out: disease control. The procedure, abridged: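 Cryopreserved conidia in potato dextrose broth were added to test compound in a 96-well microtiter plate and incubated at 24 °C. Growth inhibition read photometrically 3–4 days after application, as percent activity versus untreated check.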

For data set [4], the system named is Phakopsora pachyrhizi. Nature of the data set: Phakopsora pachyrhizi / soybean / leaf disc preventative (Asian soybean rust). Type of data set: in vivo. To be noted: foliar, 200 ppm in the applied formulation, soybean leaf disks, inoculated one day after application, vs untreated, 12 to 14 days after application, read-out: disease control. The procedure, abridged: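 Soybean leaf discs on water agar sprayed with formulated compound diluted in water, then inoculated one day later with spore suspension on the lower surface. Held 24-36 h dark at 20 °C, 75% rh, then 12 h light/day; percent disease control versus untreated scored 12-14 days after application.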

For data set [5], the system named is Puccinia recondita f. Sp. Tritici. Description: Puccinia recondita f. sp. tritici / wheat / leaf disc curative (brown rust). The following applies: foliar, 200 ppm in the applied formulation, wheat leaf segments cv. Kanzler, compound applied 1 day after inoculation, vs untreated, 6 to 8 days after application, read-out: disease control. Type of data set: in vivo. The procedure, abridged: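 Wheat leaf segments (cv. Kanzler) on agar inoculated with brown rust spores, held dark at 19 °C/75% RH, then sprayed 1 day post-inoculation with formulated compound diluted in water (curative). Incubated at 19 °C/75% RH, 12 h light/12 h dark; percent disease control versus untreated scored 6–8 days after application.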

Bounds are passed on as bounds.

On to `COc1cc(CCC(=O)Nc2ccc(-c3noc(C(F)(F)F)n3)cc2)cc(OC)c1OC` [Compound 1.13, N-[4-[5-(trifluoromethyl)-1,2,4-oxadiazol-3-yl]phenyl]-3-(3,4,5-trimethoxyphenyl) propanamide], for which, in data set [1], the pest or weed control at 100 ppm is ≥ 80%. Besides, in data set [2], the pest or weed control at 200 ppm is ≥ 80%. The inhibition of growth at 20 ppm in data set [3] was ≥ 80%.

As for `CC(C)NC(=O)c1c(F)cccc1C(=O)Nc1ccc(-c2noc(C(F)(F)F)n2)cc1` [Compound 1.29, 3-fluoro-N2-isopropyl-N1-[4-[5-(trifluoromethyl)-1,2,4-oxadiazol-3-yl]phenyl] phthalamide], in data set [1], the pest or weed control at 100 ppm was ≥ 80%. The pest or weed control at 200 ppm in data set [2] and in data set [4] was ≥ 80% throughout. For the same compound, the inhibition of growth at 20 ppm in data set [3] was ≥ 80%.

On to `CC12CCC(C(=O)Nc3ccc(-c4noc(C(F)(F)F)n4)cc3)(OC1=O)C2(C)C` (centres unmarked) [Compound 1.4, 1,7,7-trimethyl-2-oxo-N-[4-[5-(trifluoromethyl)-1,2,4-oxadiazol-3-yl]phenyl]-3-oxabicyclo[2.2.1] heptane-4-carboxamide], for which, in data set [1], the pest or weed control at 100 ppm is ≥ 80%. In data set [4], the pest or weed control at 200 ppm was ≥ 80%. Moreover, the inhibition of growth at 20 ppm in data set [3] is ≥ 80%.

As to `CCC(=O)N(CC(=O)NC(C)(C)C)c1ccc(-c2noc(C(F)(F)F)n2)cc1` [Compound 1.57, N-[2-(tert-butylamino)-2-oxo-ethyl]-N-[4-[5-(trifluoromethyl)-1,2,4-oxadiazol-3-yl]phenyl] propanamide], in data set [1], the pest or weed control at 100 ppm was ≥ 80%. Moreover, in data set [2], the pest or weed control at 200 ppm is ≥ 80%. The inhibition of growth at 20 ppm in data set [3] was ≥ 80%.

Consider `O=C(Nc1ccc(-c2noc(C(F)(F)F)n2)cc1)C(F)c1ccccc1` (centres unmarked) [Compound 1.16, 2-fluoro-2-phenyl-N-[4-[5-(trifluoromethyl)-1,2,4-oxadiazol-3-yl]phenyl]acetamide], for which the pest or weed control at 100 ppm in data set [1] was ≥ 80%. Also, the pest or weed control at 200 ppm in data set [2] and in data set [4] was ≥ 80% throughout. The inhibition of growth at 20 ppm in data set [3] was ≥ 80%.

Turning to `O=C(Cn1cncn1)Nc1ccc(-c2noc(C(F)(F)F)n2)cc1` [Compound 1.23, 2-(1,2,4-triazol-1-yl)-N-[4-[5-(trifluoromethyl)-1,2,4-oxadiazol-3-yl]phenyl]acetamide], the pest or weed control at 100 ppm in data set [1] is ≥ 80%. For the same compound, in data set [2], the pest or weed control at 200 ppm was ≥ 80%. For the same compound, the inhibition of growth at 20 ppm in data set [3] was ≥ 80%.

On to `CN(C(=O)C1CCC1)c1ccc(-c2noc(C(F)(F)F)n2)cc1` [Compound 2.25, N-methyl-N-[4-[5-(trifluoromethyl)-1,2,4-oxadiazol-3-yl]phenyl]cyclobutane-carboxamide], for which the pest or weed control at 100 ppm in data set [1] is ≥ 80%. In addition, the pest or weed control at 200 ppm in data set [5], in data set [2] and in data set [4] was ≥ 80% throughout. The inhibition of growth at 20 ppm in data set [3] is ≥ 80%.

With `CC(C)(C(=O)Nc1ccc(-c2noc(C(F)(F)F)n2)cc1)c1ncc(Cl)cc1Cl` [Compound 1.32, 2-(3,5-dichloro-2-pyridyl)-2-methyl-N-[4-[5-(trifluoromethyl)-1,2,4-oxadiazol-3-yl]phenyl] propanamide], the pest or weed control at 100 ppm in data set [1] is ≥ 80%. In data set [2], the pest or weed control at 200 ppm was ≥ 80%.

Take `CC(=O)N(CC(=O)NC(C)(C)C)c1ccc(-c2noc(C(F)(F)F)n2)cc1` [Compound 1.56, 2-[N-acetyl-4-[5-(trifluoromethyl)-1,2,4-oxadiazol-3-yl]anilino]-N-tert-butyl-acetamide]: the pest or weed control at 100 ppm in data set [1] is ≥ 80%. Moreover, the pest or weed control at 200 ppm in data set [5] and in data set [2] was ≥ 80% in each case. In addition, the inhibition of growth at 20 ppm in data set [3] was ≥ 80%.

Take `CC(=O)N(C(C)=O)c1ccc(-c2noc(C(F)(F)F)n2)cn1` [Compound 1.45, N-acetyl-N-[5-[5-(trifluoromethyl)-1,2,4-oxadiazol-3-yl]-2-pyridyl]acetamide]: the pest or weed control at 100 ppm in data set [1] is ≥ 80%. Further, the pest or weed control at 200 ppm in data set [5], in data set [2] and in data set [4] was ≥ 80% throughout. The inhibition of growth at 20 ppm in data set [3] was ≥ 80%.

Consider `COc1cc(C(=O)Nc2ccc(-c3noc(C(F)(F)F)n3)cc2)cc(OC)c1OC` [Compound 1.6, 3,4,5-trimethoxy-N-[4-[5-(trifluoromethyl)-1,2,4-oxadiazol-3-yl]phenyl]benzamide], for which the pest or weed control at 100 ppm in data set [1] is ≥ 80%. Besides, the pest or weed control at 200 ppm in data set [2] and in data set [4] was ≥ 80% in each case.

As to `CON(CC1CC1)C(=O)Nc1ccc(-c2noc(C(F)(F)F)n2)cc1` [Compound 1.69, 1-(cyclopropylmethyl)-1-methoxy-3-[4-[5-(trifluoromethyl)-1,2,4-oxadiazol-3-yl]phenyl]urea], the melting point lay in the range of 117 to 120 °C. The inhibition of growth at 20 ppm in data set [3] was ≥ 80%.

`C#CC(C)(C)C(=O)Nc1ccc(-c2noc(C(F)(F)F)n2)cc1` [Compound 1.5, 2,2-dimethyl-N-[4-[5-(trifluoromethyl)-1,2,4-oxadiazol-3-yl]phenyl]but-3-ynamide]: the pest or weed control at 100 ppm in data set [1] was ≥ 80%. In addition, the pest or weed control at 200 ppm in data set [5], in data set [2] and in data set [4] was ≥ 80% each time. For the same compound, the inhibition of growth at 20 ppm in data set [3] is ≥ 80%.

Take `COC1=CC(=O)CC(C(=O)Nc2ccc(-c3noc(C(F)(F)F)n3)cc2)C1` (centres unmarked) [Compound 1.31, 3-methoxy-5-oxo-N-[4-[5-(trifluoromethyl)-1,2,4-oxadiazol-3-yl]phenyl]cyclohex-3-ene-1-carboxamide]: in data set [1], the pest or weed control at 100 ppm was ≥ 80%. Moreover, the pest or weed control at 200 ppm in data set [2] and in data set [4] was ≥ 80% throughout. Moreover, the inhibition of growth at 20 ppm in data set [3] was ≥ 80%.

As to `O=C(CCC(F)(F)F)Nc1ccc(-c2noc(C(F)(F)F)n2)cc1` [Compound 1.20, 4,4,4-trifluoro-N-[4-[5-(trifluoromethyl)-1,2,4-oxadiazol-3-yl]phenyl]butanamide], the pest or weed control at 100 ppm in data set [1] is ≥ 80%. The pest or weed control at 200 ppm in data set [2] and in data set [4] was ≥ 80% in each case. For the same compound, the inhibition of growth at 20 ppm in data set [3] is ≥ 80%.

For `O=C(NOCc1ccccc1F)Nc1ccc(-c2noc(C(F)(F)F)n2)cc1` [Compound 1.127, 1-[(2-fluorophenyl)methoxy]-3-[4-[5-(trifluoromethyl)-1,2,4-oxadiazol-3-yl]phenyl]urea], the melting point was 140 to 143 °C. Further, the inhibition of growth at 20 ppm in data set [3] was ≥ 80%.

In the case of `O=C(Nc1ccc(-c2noc(C(F)(F)F)n2)cc1)c1cncc(N2CCOCC2)n1` [Compound 1.2, 6-morpholino-N-[4-[5-(trifluoromethyl)-1,2,4-oxadiazol-3-yl]phenyl]pyrazine-2-carboxamide], in data set [1], the pest or weed control at 100 ppm was ≥ 80%. The pest or weed control at 200 ppm in data set [4] was ≥ 80%.

As for `CC1Cc2c(Br)ccc(C(=O)Nc3ccc(-c4noc(C(F)(F)F)n4)cc3)c2S1(=O)=O` (centres unmarked) [Compound 1.39, 4-bromo-2-methyl-1,1-dioxo-N-[4-[5-(trifluoromethyl)-1,2,4-oxadiazol-3-yl]phenyl]-2,3-dihydrobenzo-thiophene-7-carboxamide], the pest or weed control at 100 ppm in data set [1] is ≥ 80%. In addition, the inhibition of growth at 20 ppm in data set [3] was ≥ 80%.

`COCC(=O)N(CC(=O)NC(C)(C)C)c1ccc(-c2noc(C(F)(F)F)n2)cc1` [Compound 1.58, N-tert-butyl-2-[N-(2-methoxyacetyl)-4-[5-(trifluoromethyl)-1,2,4-oxadiazol-3-yl]anilino]acetamide]: the pest or weed control at 100 ppm in data set [1] was ≥ 80%. Besides, in data set [2], the pest or weed control at 200 ppm was ≥ 80%.
